Paper PMC11802874, “The hypolipidemic effect of MI-883, the combined CAR agonist/ PXR antagonist, in diet-induced hypercholesterolemia model” (Nature Communications, 2025)
Marks after values point to notes of the source that are not given here.

Experiment: Pharmacokinetic study after single dose in C57BL/6N mice
Type: in vivo, mouse
Procedure: Pharmacokinetic study of MI-883 in C57BL/6N mice (9–10 weeks old, body weight 20.8 to 24.5 g and average body weight across all groups 22.7 g, SD = 1.1 g) were performed following peroral (p.o.) and intraperitoneal (i.p.) administrations. […] There was also a control group of 4 animals per route. The levels of the parent compound MI-883 were determined by LC-MS/MS in the blood plasma, brain, kidney, liver, muscle (Leg triceps), bile, small intestine, colon, and adipose tissues over time after a single dose of 10 mg/kg. Mice were injected i.p. with 2,2,2-tribromoethanol at a dose of 150 mg/kg prior to drawing the blood. Blood collection was performed from the orbital sinus in BD microtainers tubes containing K2EDTA. Animals were sacrificed by cervical dislocation after the blood samples collection. After this, samples of brain, kidney, liver, muscle (Leg triceps), small intestine, colon, and adipose tissue were collected. Bile samples were taken from the gallbladder of mice. Urine and feces samples were collected using metabolic cages over the course of 1440 min (24 h) after compound administration. All samples were immediately processed, flash-frozen, and stored at –70 °C until subsequent analysis. Detection of the presence of potential metabolites (2-chloro-5-((4-(2-(4-chlorophenyl)-7-fluoroimidazo[1,2-a]pyridin-3-yl)-1H-1,2,3-triazol-1-yl)methyl)-N-methylbenzamide or 2-(4-chlorophenyl)-7-fluoro-3-(1H-1,2,3-triazol-4-yl)imidazo[1,2-a]pyridine) in plasma and tissues was performed. MI-883 was applied in 5%DMSO – 5%PEG300 – 90%corn oil formulation with a final concentration of the compound, 2 mg/ml. Animal treatment and sample preparation were conducted by the Animal Laboratory personnel at Enamine/Bienta.
Plasma samples (50 μl) were mixed with 200 μl of IS400 solution. After mixing by pipetting and centrifuging for 4 min at 6000 rpm, 2 μl of each supernatant was injected into the LC-MS/MS system. Solution of compound IS-19851 (400 ng/ml in acetonitrile-methanol mixture 1:1, v/v) was used as internal standard (IS400) for quantification of MI-883 in blood plasma, liver, kidney, muscle (Leg triceps), small intestine, and colon samples. Liver, kidney, muscle (Leg triceps), colon, and small intestine samples (weight 100 mg ±1 mg) were disintegrated in 500 μl of IS400 using zirconium oxide beads (120 mg ± 5 mg) in The Bullet Blender® homogenizer for 1–3 min at speed 8–12. After this, the samples were centrifuged for 3 min at 14,000 rpm, and 1 μl of each supernatant was injected into the LC-MS/MS system.
Brain and adipose tissue samples (weight 100 mg ± 1 mg) were dispersed in 500 μl of IS400(80) using zirconium oxide beads (120 mg ± 5 mg) in The Bullet Blender® homogenizer for 30 s at speed 8. After this, the samples were centrifuged for 4 min at 14,000 rpm, and 1 μl of each supernatant was injected into the LC-MS/MS system. Solution of compound IS-19851 (400 ng/ml in water-acetonitrile-methanol mixture, 2:4:4, v/v/v) was used as internal standard (IS400(80)) for quantification of MI-883 in the brain, adipose tissue, urine, and bile samples. Urine (cumulative) and bile samples were mixed with IS400(80) solution (1:20, v/v). After mixing by pipetting and centrifuging for 4 min at 6000 rpm, 0.5 μl of each supernatant was injected into the LC-MS/MS system. Cumulative feces samples (114 mg–249 mg) were transferred to BMT-20-S tubes with 4 stainless steel balls, mixed with 20 volumes of IS400(80) solution, and dispersed using ULTRA-TURRAX Tube Drive for 1 min at 3000 rpm within the 30 min thrice. After dispersing and centrifuging for 2 min at 14,000 rpm, 0.5 μl of each supernatant was injected into the LC-MS/MS system.
The concentration of MI-883 in plasma and tissues was determined using a high-performance liquid chromatography/tandem mass spectrometry (HPLC-MS/MS) method. […]

[1] = male, C57BL/6N, mouse, ip, Liver, 10 mg/kg
[2] = male, C57BL/6N, mouse, po, Liver, 10 mg/kg
[3] = male, C57BL/6N, mouse, po, Plasma, 10 mg/kg

## NC(=O)c1cc(Cn2cc(-c3c(-c4ccc(Cl)cc4)nc4cc(F)ccn34)nn2)ccc1Cl [MI-883, 2-chloro-5-((4-(2-(4-chlorophenyl)-7-fluoroimidazo[1,2-a]pyridin-3-yl)-1H-1,2,3-triazol-1-yl)methyl)benzamide]
10 mg/kg p.o. and i.p.
  expected metabolites (N-methyl, N-dimethyl benzamide, triazolyl-imidazopyridine) in plasma and tissues: No expected metabolites
10 mg/kg, C57BL/6N mice
  route of excretion: excreted mainly via bile
  tissue distribution: significantly distributed into the liver, but not the brain
Estimation based on comparison of AUCs after p.o. and i.p. application, 10 mg/kg
  Peroral bioavailability (%, p.o. vs. i.p.): 98.6* %
i.p., time 10
  PK of MI-883: MI-883 i.p. adipose tis.: 2064
  PK of MI-883: MI-883 i.p. bile: 347
  PK of MI-883: MI-883 i.p. brain: 20
  PK of MI-883: MI-883 i.p. colon: 7473
  PK of MI-883: MI-883 i.p. kidney: 1650
  PK of MI-883: MI-883 i.p. liver: 9584
  PK of MI-883: MI-883 i.p. muscule: 114
  PK of MI-883: MI-883 i.p. small intestine: 10141
  PK of MI-883: MI-883 i.p: 565
i.p., time 120
  PK of MI-883: MI-883 i.p. adipose tis.: 2083
  PK of MI-883: MI-883 i.p. bile: 5663
  PK of MI-883: MI-883 i.p. brain: 88
  PK of MI-883: MI-883 i.p. colon: 3182
  PK of MI-883: MI-883 i.p. kidney: 4299
  PK of MI-883: MI-883 i.p. liver: 14064
  PK of MI-883: MI-883 i.p. muscule: 913
  PK of MI-883: MI-883 i.p. small intestine: 7374
  PK of MI-883: MI-883 i.p: 5532
i.p., time 240
  PK of MI-883: MI-883 i.p. adipose tis.: 2267
  PK of MI-883: MI-883 i.p. bile: 6712
  PK of MI-883: MI-883 i.p. brain: 86
  PK of MI-883: MI-883 i.p. colon: 3492
  PK of MI-883: MI-883 i.p. kidney: 6585
  PK of MI-883: MI-883 i.p. liver: 10374
  PK of MI-883: MI-883 i.p. muscule: 720
  PK of MI-883: MI-883 i.p. small intestine: 4886
  PK of MI-883: MI-883 i.p: 3130
i.p., time 480
  PK of MI-883: MI-883 i.p. adipose tis.: 1643
  PK of MI-883: MI-883 i.p. bile: 17332
  PK of MI-883: MI-883 i.p. brain: 62
  PK of MI-883: MI-883 i.p. colon: 1531
  PK of MI-883: MI-883 i.p. kidney: 3365
  PK of MI-883: MI-883 i.p. liver: 6478
  PK of MI-883: MI-883 i.p. muscule: 687
  PK of MI-883: MI-883 i.p. small intestine: 1858
  PK of MI-883: MI-883 i.p: 2314
i.p., time 720
  PK of MI-883: MI-883 i.p. adipose tis.: 651
  PK of MI-883: MI-883 i.p. bile: 20058
  PK of MI-883: MI-883 i.p. brain: 33
  PK of MI-883: MI-883 i.p. colon: 1717
  PK of MI-883: MI-883 i.p. kidney: 1611
  PK of MI-883: MI-883 i.p. liver: 4261
  PK of MI-883: MI-883 i.p. muscule: 320
  PK of MI-883: MI-883 i.p. small intestine: 873
  PK of MI-883: MI-883 i.p: 1008
i.p., feces, time 1440
  PK of MI-883: MI-883 i.p. feces: 689 ng
i.p., time 1440
  PK of MI-883: MI-883 i.p. kidney: 11
  PK of MI-883: MI-883 i.p. liver: 24
  PK of MI-883: MI-883 i.p: 1
[1]
  Cmax: 14100 ng/mL
  Tmax: 30 min
  half-life: 152 min
male, C57BL/6N, mouse, ip, Plasma, 10 mg/kg
  Cmax: 5530 ng/mL
male, C57BL/6N, mouse, plasma, 10 mg/kg, calculated from data after a single dose application, read-out: volume of distribution (Vd) in mice
  Vd: 0.06 L
[2]
  Cmax: 14900 ng/mL
  Tmax: 30 min
  half-life: 211 min
[3]
  Cmax: 9290 ng/mL
  Tmax: 30 min
  half-life: 170 min
male, mouse, ip, Plasma, 10 mg/kg, C57BL/6N mice
  Tmax: 30 min
p.o., time 10
  PK of MI-883: MI-883 p.o. adipose tis.: 211
  PK of MI-883: MI-883 p.o. bile: 560
  PK of MI-883: MI-883 p.o. brain: 8
  PK of MI-883: MI-883 p.o. colon: 2929
  PK of MI-883: MI-883 p.o. kidney: 573
  PK of MI-883: MI-883 p.o. liver: 1972
  PK of MI-883: MI-883 p.o. muscule: 98
  PK of MI-883: MI-883 p.o. small int.: 5277
  PK of MI-883: MI-883 p.o.: 440
p.o., time 120
  PK of MI-883: MI-883 p.o. adipose tis.: 5811
  PK of MI-883: MI-883 p.o. bile: 5663
  PK of MI-883: MI-883 p.o. brain: 300
  PK of MI-883: MI-883 p.o. colon: 4345
  PK of MI-883: MI-883 p.o. kidney: 9000
  PK of MI-883: MI-883 p.o. liver: 14919
  PK of MI-883: MI-883 p.o. muscule: 2725
  PK of MI-883: MI-883 p.o. small int.: 9143
  PK of MI-883: MI-883 p.o.: 9288
p.o., time 240
  PK of MI-883: MI-883 p.o. adipose tis.: 980
  PK of MI-883: MI-883 p.o. bile: 9638
  PK of MI-883: MI-883 p.o. brain: 45
  PK of MI-883: MI-883 p.o. colon: 1191
  PK of MI-883: MI-883 p.o. kidney: 2409
  PK of MI-883: MI-883 p.o. liver: 5297
  PK of MI-883: MI-883 p.o. muscule: 421
  PK of MI-883: MI-883 p.o. small int.: 2579
  PK of MI-883: MI-883 p.o.: 1645
p.o., time 480
  PK of MI-883: MI-883 p.o. adipose tis.: 1023
  PK of MI-883: MI-883 p.o. bile: 9739
  PK of MI-883: MI-883 p.o. colon: 1428
  PK of MI-883: MI-883 p.o. kidney: 2347
  PK of MI-883: MI-883 p.o. liver: 5137
  PK of MI-883: MI-883 p.o. muscule: 488
  PK of MI-883: MI-883 p.o. small int.: 1398
  PK of MI-883: MI-883 p.o.: 1502
p.o., time 720
  PK of MI-883: MI-883 p.o. adipose tis.: 1016
  PK of MI-883: MI-883 p.o. bile: 23456
  PK of MI-883: MI-883 p.o. brain: 55
  PK of MI-883: MI-883 p.o. colon: 1386
  PK of MI-883: MI-883 p.o. kidney: 2408
  PK of MI-883: MI-883 p.o. liver: 5549
  PK of MI-883: MI-883 p.o. muscule: 543
  PK of MI-883: MI-883 p.o. small int.: 2156
  PK of MI-883: MI-883 p.o.: 1788
p.o., time 1440
  PK of MI-883: MI-883 p.o. adipose tis.: 8
  PK of MI-883: MI-883 p.o. bile: 192
  PK of MI-883: MI-883 p.o. colon: 15
  PK of MI-883: MI-883 p.o. kidney: 40
  PK of MI-883: MI-883 p.o. liver: 102
  PK of MI-883: MI-883 p.o. small int.: 21
  PK of MI-883: MI-883 p.o.: 15
p.o., feces, time 1440
  PK of MI-883: MI-883 p.o. feces: 174 ng
Single dose of 10 mg/kg
  time with liver concentration above 1000 ng/g: more than 18 hours
Single dose of 10 mg/kg p.o., male C57BL/6N mice
  concentration in the liver lysate: greater than 1000 ng/g
